The results in this text go back to patent US20220079984A1, “METHOD FOR TREATING CANCER WITH KIDNEY PROTECTION” (Renibus Therapeutics, Inc., priority 2020, published 2022).

In assay [1] the test system is CD-1 mice. Kind of assay: RBT-3 preconditioning: cisplatin nephrotoxicity and renal cisplatin uptake. The conditions noted are these: cisplatin 15 mg/Kg IP ± 1 mg RBT-3 IV 18 hrs before, 3 days post cisplatin, mean ± SEM. It counts as in vivo. The method, then: 4. […] Mice were injected with 1 mg RBT-3 or saline vehicle via the tail vein (n, 5 each). […] Free food and water were provided throughout. […] Plasma levels of the proximal tubule enzyme, N-acetyl glucosamidase (“NAG”), were also assessed (BioAssay Systems #DNAG-100; Hayward, Calif.). […] Statistics. Each sample was assayed in duplicate with the average being used for data presentation and analysis. The human hepcidin data are presented as means±1 SD. Baseline plasma hepcidin values for the HV and CKD groups were compared by unpaired Student's t test. Comparisons of hepcidin levels over time were analyzed by ANOVA for repeated measures with 95% confidence intervals being presented. Baseline demographic data were compared by unpaired Student's t test. Mouse data are given as means±1 SEM.

In assay [2] the test system is mice. The assay can be described thus: SnPP preconditioning against cisplatin nephrotoxicity. Set-up: P creatinine: unit not given here. The assay is classed as in vivo.
The mark [3] stands for this setting: SnPP 1 umole or vehicle day zero, cisplatin 15 mg/kg day 1, 3 days post cisplatin.

Regarding `N.N.[Cl][Pt][Cl]` [Cisplatin, cis-diammine dichloroplatinum II], in assay [1], the BUN was determined as 105 ± 11 mg/dL, the Creat came to 0.7 ± 0.1 mg/dL and the “Plasma NAG” value stood at 19.5 ± 0.8 activity units/liter. Moreover, in assay [2] (3 days post cisplatin), the “HO-1 mRNA” value is reported as 1.16 ± 0.28, the “IL-6 mRNA” value worked out at 2.51 ± 1.65, the “MCP-1 mRNA” value was determined as 10.9 ± 5.7 and the “NGAL mRNA” value is 16.9 ± 12. In addition, the “P21 mRNAs” value in assay [2] (3 days post cisplatin) came out at 4.23 ± 0.61. Moreover, in assay [2] (setting [3]), the BUN was found to be 103 ± 22 and the P creatinine is 0.94 ± 0.41. In addition, the “Tissue LDH” value in assay [2] (renal cortical, 3 days post cisplatin) is on record as 754 ± 54.
Regarding `C=Cc1c2[n-]c(c1C)/C=c1\[n-]/c(c(C)c1C=C)=C\c1[n-]c(c(CCC(=O)O)c1C)/C=c1\[n-]c(c(C)c1CCC(=O)O)=C2.[Sn+4]` [SnPP, tin protoporphyrin], in assay [2] (P<0.01), the “protection in cisplatin treated mice, compared to cisplatin alone” value was “statistically significant protection”.
